Data from publication PMC7758046, “Novel piperazine–chalcone hybrids and related pyrazoline analogues targeting VEGFR-2 kinase; design, synthesis, molecular docking studies, and anticancer evaluation” (Journal of Enzyme Inhibition and Medicinal Chemistry, 2020).
“Also recorded” adds a separate entry of the source.

Columns and labels:
[1] = tested on: 786-0 (Renal cancer); test: NCI-60 single-dose anticancer screen; assay type: cell-based, human; settings: 10 µM single dose
Experimental: (§1) Six compounds were selected by the NCI, according to NCI’s DTP selection guidelines, for evaluation of their anticancer activity at a single-dose of 10 µM against 60 human tumours cell lines.
(§2) In vitro cytotoxicity was performed in NCI according to reported method.

[2] = tested on: A498 (Renal cancer); test: NCI-60 single-dose anticancer screen; assay type: cell-based, human; settings: 10 µM single dose
Experimental: as §1, §2

[3] = tested on: A549/ATCC (Non-small cell lung cancer); test: NCI-60 single-dose anticancer screen; assay type: cell-based, human; settings: 10 µM single dose
Experimental: as §1, §2

[4] = tested on: BT-549 (Breast cancer); test: NCI-60 single-dose anticancer screen; assay type: cell-based, human; settings: 10 µM single dose
Experimental: as §1, §2

[5] = tested on: HOP-62 (Non-small cell lung cancer); test: NCI-60 single-dose anticancer screen; assay type: cell-based, human; settings: 10 µM single dose
Experimental: as §1, §2

[6] = tested on: K-562 (Leukaemia); test: NCI-60 single-dose anticancer screen; assay type: cell-based, human; settings: for cell growth promotion: 10 µM single dose; for inhibition at 10 µM: Homo sapiens, K562, 10 µM single dose, read-out: cell growth inhibition
Experimental: as §1, §2

[7] = tested on: KM12 (Colon cancer); test: NCI-60 single-dose anticancer screen; assay type: cell-based, human; settings: 10 µM single dose
Experimental: as §1, §2

[8] = tested on: LOX IMVI (Melanoma); test: NCI-60 single-dose anticancer screen; assay type: cell-based, human; settings: 10 µM single dose
Experimental: as §1, §2

[9] = tested on: MDA-MB-435 (Melanoma); test: NCI-60 single-dose anticancer screen; assay type: cell-based, human; settings: 10 µM single dose
Experimental: as §1, §2

[10] = tested on: MDA-MB-468 (Breast cancer); test: NCI-60 single-dose anticancer screen; assay type: cell-based, human; settings: 10 µM single dose
Experimental: as §1, §2

[11] = tested on: NCI-H23 (Non-small cell lung cancer); test: NCI-60 single-dose anticancer screen; assay type: cell-based, human; settings: 10 µM single dose
Experimental: as §1, §2

[12] = tested on: NCI-H522 (Non-small cell lung cancer); test: NCI-60 single-dose anticancer screen; assay type: cell-based, human; settings: 10 µM single dose
Experimental: as §1, §2

[13] = tested on: NCI/ADR-RES (Ovarian cancer); test: NCI-60 single-dose anticancer screen; assay type: cell-based, human; settings: 10 µM single dose
Experimental: as §1, §2

[14] = tested on: SF-295 (CNS cancer); test: NCI-60 single-dose anticancer screen; assay type: cell-based, human; settings: 10 µM single dose
Experimental: as §1, §2

[15] = tested on: SF-539 (CNS cancer); test: NCI-60 single-dose anticancer screen; assay type: cell-based, human; settings: 10 µM single dose
Experimental: as §1, §2

[16] = tested on: SK-MEL-2 (Melanoma); test: NCI-60 single-dose anticancer screen; assay type: cell-based, human; settings: 10 µM single dose
Experimental: as §1, §2

[17] = tested on: SK-MEL-5 (Melanoma); test: NCI-60 single-dose anticancer screen; assay type: cell-based, human; settings: 10 µM single dose
Experimental: as §1, §2

[18] = tested on: SR (Leukaemia); test: NCI-60 single-dose anticancer screen; assay type: cell-based, human; settings: 10 µM single dose; for inhibition at 10 µM: Homo sapiens, read-out: cell growth inhibition
Experimental: as §1, §2

[19] = tested on: SW-620 (Colon cancer); test: NCI-60 single-dose anticancer screen; assay type: cell-based, human; settings: 10 µM single dose
Experimental: as §1, §2

[20] = tested on: TK-10 (Renal cancer); test: NCI-60 single-dose anticancer screen; assay type: cell-based, human; settings: 10 µM single dose
Experimental: as §1, §2

[21] = tested on: HCT-116 cells; test: Cell cycle analysis by DNA flow cytometry; assay type: cell-based, human; settings: 10 µM; for %Pre-G1 / %G2/M / %S / %G0/G1: 24 h; for %Pre-G1: control 1.97; for %G2/M: control 15.44; for %S: control 30.18; for %G0/G1: control 54.38
Experimental: Flow cytometric analysis is considered a valuable method for determining and analysing the cell cycle parameters. […] The effect on the cell cycle distribution was assessed by a DNA flow cytometry analysis and the cell cycle parameters were compared to untreated control cells in HCT-116 cells which had been incubated with 10 µM of Vd and Ve compounds and the results are shown in Table 3 and Figure 3.
HCT-116 cells were seeded at concentrations of 1 × 10^5 cells per well in a six-well plate, then incubated for 24 h. The cells were treated for 24 h with vehicles (0.1% DMSO) or 10 µM of Vd or Ve compounds. Using ice-cold, 70% ethanol at 4 °C, cells were harvested and fixed for 12 h after that. Ethanol removal and cold PBS washing of the cells were done. Then incubated in 0.5 mL of PBS containing 1 mg/mL Ranse for 30 min at 37 °C. In the dark, the cells were stained with PI for 30 min. Flow cytometer was then used to detect contents of DNA[62].

[22] = tested on: HCT-116 cells; test: Annexin V-FITC/PI apoptosis assay; settings: for Apoptosis Early: control 0.51; for Necrosis: control 1.21; for Apoptosis Total: control 1.97
[23] = Homo sapiens, read-out: cell growth inhibition

SMILES | cell growth promotion [1] [%] | cell growth promotion [2] [%] | cell growth promotion [3] [%] | cell growth promotion [4] [%] | cell growth promotion [5] [%] | cell growth promotion [6] [%] | cell growth promotion [7] [%] | cell growth promotion [8] [%] | cell growth promotion [9] [%] | cell growth promotion [10] [%] | cell growth promotion [11] [%] | cell growth promotion [12] [%] | cell growth promotion [13] [%] | cell growth promotion [14] [%] | cell growth promotion [15] [%] | cell growth promotion [16] [%] | cell growth promotion [17] [%] | cell growth promotion [18] [%] | cell growth promotion [19] [%] | cell growth promotion [20] [%] | also measured
COc1cc(C2CC(c3ccc(N4CCNCC4)cc3)=NN2)ccc1F (stereo not shown) [VIb, 1-(4-(5-(4-Fluoro-3-methoxyphenyl)-4,5-dihydro-1H-pyrazol-3-yl)phenyl) piperazine] | 94.50 | 90.59 | 68.21 | 70.80 | 86.01 | 58.92 | 93.81 | 79.56 | 101.87 | 96.57 | 75.49 | 66.27 | 104.69 | 97.70 | 84.21 | 87.70 | 80.94 | 67.42 | 91.67 | 113.60 | inhibition at 10 µM [6]: 41.1%; melting point: 195 °C
O=C(C=Cc1ccncc1F)c1ccc(N2CCNCC2)cc1 [Vf, 3-(3-Fluoropyridin-4-yl)-1-(4-(piperazin-1-yl)phenyl)prop-2-en-1-one] | 103.38 | 97.22 | 78.75 | 90.81 | 102.01 | 85.84 | 105.34 | 103.22 | 102.37 | 100.32 | 102.52 | 78.82 | 107.53 | 101.95 | 101.29 | 91.63 | 101.11 | 92.99 | 105.59 | 95.83 | inhibition at 10 µM [6]: 14.2%; inhibition at 10 µM [18]: 7.01%; melting point: 225 °C
N#Cc1ccccc1C1CC(c2ccc(N3CCNCC3)cc2)=NN1 (stereo not shown) [VIa, 2-(3-(4-(Piperazin-1-yl)phenyl)-4,5-dihydro-1H-pyrazol-5-yl)benzonitrile] | 106.73 | 93.08 | 78.06 | 96.87 | 86.44 | 78.12 | 97.48 | 99.03 | 102.57 | 101.01 | 91.73 | 69.51 | 102.72 | 103.66 | 105.04 | 94.51 | 93.27 | 94.43 | 94.11 | 130.17 | inhibition at 10 µM [3, 23]: 21.9%; inhibition at 10 µM [6]: 21.9%; inhibition at 10 µM [12, 23]: 30.5%; inhibition at 10 µM [18]: 5.57%; melting point: 165 °C
COc1cc(C=CC(=O)c2ccc(N3CCNCC3)cc2)ccc1F [Ve, 3-(4-Fluoro-3-methoxyphenyl)-1-(4-(piperazin-1-yl)phenyl) prop-2-en-1-one] | 87.22 | 100.79 | 67.25 | 66.42 | 101.42 | 12.37 | 60.47 | 49.01 | 80.14 | 46.48 | 92.63 | 61.19 | 79.31 | 95.92 | 95.87 | 85.44 | 79.33 | 46.22 | 50.69 | 101.24 | inhibition at 10 µM [6]: 87.6%; inhibition at 10 µM [18]: 53.8%; Comment (cell cycle arrest phase) [21]: arrest HCT-116 cell cycle in the G2/M phase; also recorded: induced cell arrest at G2/M phase; %Pre-G1 [21]: 18.22%; %G2/M [21]: 46.85%; %S [21]: 28.58%; %G0/G1 [21]: 24.57%; total increase in apoptosis compared to the control [22]: ~21.2 fold; Apoptosis Early ([22]; 10 µM, 24 h): 4.76%; Necrosis ([22]; 10 µM, 24 h): 2.11%; Apoptosis Total ([22]; 10 µM, 24 h): 18.22%
O=C(C=Cc1cccc(F)c1)c1ccc(N2CCNCC2)cc1 [Vd, 3-(3-Fluorophenyl)-1-(4-(piperazin-1-yl)phenyl)prop-2-en-1-one] | 85.24 | 95.14 | 76.84 | 73.16 | 80.17 | 16.55 | 77.75 | 71.13 | 94.27 | 94.85 | 77.30 | 71.57 | 109.37 | 101.78 | 94.49 | 96.08 | 76.85 | 55.72 | 61.08 | 114.19 | inhibition at 10 µM [6]: 83.5%; inhibition at 10 µM [18]: 44.3%; Comment (cell cycle arrest phase) [21]: arrest HCT-116 cell cycle in the G2/M phase; also recorded: induced cell arrest at G2/M phase; %Pre-G1 [21]: 16.54%; %G2/M [21]: 50.44%; %S [21]: 27.78%; %G0/G1 [21]: 21.78%; total increase in apoptosis compared to the control [22]: approximately 18.7 fold; Apoptosis Late ([22]; 10 µM, 24 h, control 0.25): 10.32%; Apoptosis Early ([22]; 10 µM, 24 h): 3.92%; Necrosis ([22]; 10 µM, 24 h): 2.3%; Apoptosis Total ([22]; 10 µM, 24 h): 16.54%
Fc1cnccc1C1CC(c2ccc(N3CCNCC3)cc2)=NN1 (stereo not shown) [VIc, 1-(4-(5-(3-Fluoropyridin-4-yl)-4,5-dihydro-1H-pyrazol-3-yl)phenyl) piperazine] | 111.09 | 97.17 | 76.20 | 85.33 | 83.16 | 77.92 | 96.23 | 94.31 | 105.18 | 114.26 | 83.85 | 81.93 | 106.03 | 98.00 | 104.39 | 92.72 | 85.78 | 90.38 | 93.46 | 122.80 | melting point: 135 °C
